Target: T1, Peptidylglycine monooxygenase (PHM) (Rattus norvegicus, UniProt P14925)
T1 sequence (P14925 42-356): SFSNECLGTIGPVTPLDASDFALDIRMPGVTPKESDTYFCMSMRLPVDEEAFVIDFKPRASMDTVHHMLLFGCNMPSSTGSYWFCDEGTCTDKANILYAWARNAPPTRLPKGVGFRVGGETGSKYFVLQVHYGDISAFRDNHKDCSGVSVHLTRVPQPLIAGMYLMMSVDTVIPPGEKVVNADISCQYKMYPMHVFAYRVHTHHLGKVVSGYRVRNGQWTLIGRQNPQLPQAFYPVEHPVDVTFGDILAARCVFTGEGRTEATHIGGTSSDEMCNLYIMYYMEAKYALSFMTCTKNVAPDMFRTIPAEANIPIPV
Assay: chemical-quench product formation versus ascorbate, fitted to a binding event
Format: biochemical

SMILES: O=C1O[C@H]([C@@H](O)CO)C(O)=C1O [ascorbate]
- Kd: 117 µM

— article PMC9064607 (Biochemistry, 2022)
